Test systems include HCT-116 colon; MCF7 breast; MDA-N; NCI-H522 lung; OVCAR-4 ovarian; SF-268 CNS; SF-295 CNS; SF-539 CNS; SK-MEL-2 melanoma; SK-MEL-28 melanoma; SK-MEL-5 melanoma; SN12C renal; SR leukemia; T-47D breast; TK-10 renal; RXF 393 renal; SNB-19 CNS.
What all share (experiment): NCI tumour cell line growth inhibition, 48 h

Where “and” joins values, the source holds several entries; their conditions need not be identical. Equal values may be shown once.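 Five concentrations, 48 hours, 96-well plates. Abbreviation: GI50, concentration required for 50% inhibition of growth. TGI denotes the concentration required for complete inhibition of growth.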

On to `O=[N+]([O-])c1ccc(C2=NOC(c3ccccc3F)N2C23CC4CC(CC(C4)C2)C3)cc1` (stereo not drawn), for which the TGI with HCT-116 colon, with MCF7 breast, with MDA-N, in the experiment with NCI-H522 lung, with OVCAR-4 ovarian and in the experiment with SF-268 CNS was greater than 100 µM in each case. Moreover, the TGI with SF-295 CNS, in the experiment on SF-539 CNS, with SK-MEL-2 melanoma, with SK-MEL-28 melanoma, with SK-MEL-5 melanoma and with SN12C renal was greater than 100 µM in each case. The TGI with SR leukemia, in the experiment on T-47D breast and with TK-10 renal was greater than 100 µM each time.

`O=c1cc(N2CCOCC2)[nH]c(=O)n1-c1cccc(C(F)(F)F)c1`: the TGI with HCT-116 colon, with MCF7 breast, in the experiment with MDA-N, in the experiment with NCI-H522 lung, with OVCAR-4 ovarian and with SF-268 CNS was greater than 100 µM throughout. The TGI in the experiment with SF-295 CNS, in the experiment on SF-539 CNS, in the experiment with SK-MEL-2 melanoma, in the experiment on SK-MEL-28 melanoma, in the experiment with SK-MEL-5 melanoma and in the experiment with SN12C renal was greater than 100 µM each time. Moreover, the TGI in the experiment on SR leukemia, with T-47D breast and with TK-10 renal was greater than 100 µM in each case.

On to `O=P(Oc1ccccc1)(Oc1ccccc1)Oc1c[nH]c2ccccc12`, for which the TGI in the experiment on HCT-116 colon turned out to be 38.8 µM; in the experiment with MCF7 breast it was 25.3 µM; in the experiment with MDA-N, 24.3 µM; with OVCAR-4 ovarian, 14.5 µM; in the experiment on RXF 393 renal, 29.2 µM; in the experiment with SF-268 CNS, 24.3 µM. For the same molecule, the TGI with SF-295 CNS came out at 13.1 µM; with SF-539 CNS it was 24 µM; in the experiment with SK-MEL-2 melanoma, 20.2 µM; in the experiment with SK-MEL-28 melanoma, 26.6 µM; in the experiment on SK-MEL-5 melanoma, 24.8 µM; in the experiment with SN12C renal, 26 µM. Further, the TGI in the experiment on SNB-19 CNS was 27.7 µM; in the experiment with SR leukemia, greater than 100 µM; in the experiment with T-47D breast, 52.9 µM; in the experiment with TK-10 renal it was 28.3 µM.

As for `O=C1C(CN2CCCCC2)CCCC1CN1CCCCC1` (stereo not drawn), the TGI is 27.6 µM and 29 µM in the experiment with HCT-116 colon; 7.87 µM in the experiment on MCF7 breast; 29.7 µM in the experiment with MDA-N; 22.2 µM with OVCAR-4 ovarian; 31.6 µM in the experiment with RXF 393 renal; greater than 100 µM in the experiment on SF-268 CNS. Moreover, the TGI is greater than 100 µM in the experiment on SF-295 CNS; > 57.5 µM and 47.8 µM with SF-539 CNS; > 100 µM and 48.4 µM in the experiment on SK-MEL-2 melanoma; 18.4 µM and 31.7 µM with SK-MEL-28 melanoma; > 31.6 µM and 47.6 µM in the experiment with SK-MEL-5 melanoma; > 31.6 µM and 48.7 µM in the experiment on SN12C renal. Moreover, the TGI is greater than 100 µM with SNB-19 CNS; 43.9 µM and 47.2 µM in the experiment on SR leukemia; 3.74 µM in the experiment with T-47D breast; > 100 µM and 28.4 µM with TK-10 renal. Moreover, the GI50 is greater than 89.2 µM with SF-268 CNS; > 83.2 µM and 31.9 µM in the experiment on SK-MEL-2 melanoma; > 100 µM and 12.4 µM in the experiment with TK-10 renal.

In the case of `CC1=C2c3c(C)ccc4ccc(C)c(c34)C2(O)C(C)C1=O` (stereo not drawn), the TGI with HCT-116 colon, in the experiment with MCF7 breast, in the experiment on MDA-N, in the experiment on NCI-H522 lung, with OVCAR-4 ovarian and in the experiment with SF-268 CNS was greater than 100 µM throughout. Also, the TGI with SF-539 CNS, in the experiment on SK-MEL-2 melanoma, in the experiment on SK-MEL-28 melanoma, in the experiment with SK-MEL-5 melanoma, in the experiment with SN12C renal and in the experiment with SNB-19 CNS was greater than 100 µM throughout. In addition, the TGI with SR leukemia, in the experiment with T-47D breast and with TK-10 renal was greater than 100 µM in each case.

For the molecule `CC(=O)C(=[N+]=[N-])C(=O)OC(C)(C)C#N`, the TGI with HCT-116 colon, in the experiment on MCF7 breast, in the experiment with MDA-N, in the experiment on OVCAR-4 ovarian, with RXF 393 renal and in the experiment with SF-268 CNS was greater than 10 µM throughout. For the same molecule, the TGI in the experiment with SF-295 CNS, with SF-539 CNS, with SK-MEL-2 melanoma, in the experiment with SK-MEL-28 melanoma, in the experiment on SK-MEL-5 melanoma and in the experiment with SN12C renal was greater than 10 µM in each case. Further, the TGI in the experiment with SNB-19 CNS, in the experiment on SR leukemia, in the experiment with T-47D breast and with TK-10 renal was greater than 10 µM in each case.

On to `COC(=O)C1(Cc2ccc3c(c2)CCC3)Cc2ccc3c(c2C1O)CCC3` (stereo not drawn), for which the TGI in the experiment with HCT-116 colon is 28.1 µM; in the experiment with MCF7 breast, 26.9 µM; with MDA-N, 29.8 µM; with NCI-H522 lung, 25.6 µM; in the experiment with OVCAR-4 ovarian, 27.7 µM; in the experiment on RXF 393 renal, 31 µM. The TGI in the experiment with SF-268 CNS came out at 69.8 µM; in the experiment with SF-295 CNS it was 42.4 µM; in the experiment with SF-539 CNS, 47.4 µM; in the experiment with SK-MEL-28 melanoma it was 32.6 µM; in the experiment with SK-MEL-5 melanoma it was 22.1 µM; in the experiment on SN12C renal, 28.5 µM. For the same molecule, the TGI in the experiment with SR leukemia was greater than 100 µM; in the experiment on T-47D breast it was 33 µM; in the experiment with TK-10 renal, 54.8 µM.

For the molecule `CN(C)c1ccc(/C=C(\C#N)C(N)=C(C#N)C#N)cc1`, the TGI with HCT-116 colon, in the experiment with MCF7 breast, in the experiment on MDA-N, with NCI-H522 lung, with OVCAR-4 ovarian and with RXF 393 renal was greater than 100 µM in each case. In addition, the TGI in the experiment on SF-268 CNS, in the experiment on SF-295 CNS, with SF-539 CNS, in the experiment on SK-MEL-28 melanoma, in the experiment on SK-MEL-5 melanoma and with SN12C renal was greater than 100 µM throughout. Also, the TGI with SNB-19 CNS, in the experiment with SR leukemia, with T-47D breast and with TK-10 renal was greater than 100 µM in each case.

For the molecule `COc1ccc2nc3ccc(OC)cc3c(S(=O)(=O)Cc3ccc([N+](=O)[O-])cc3)c2c1`, the TGI in the experiment with HCT-116 colon, in the experiment on MCF7 breast, in the experiment with MDA-N, in the experiment with NCI-H522 lung, in the experiment with OVCAR-4 ovarian and with RXF 393 renal was greater than 100 µM throughout. For the same molecule, the TGI with SF-268 CNS, in the experiment with SF-295 CNS, in the experiment on SF-539 CNS, in the experiment with SK-MEL-2 melanoma, in the experiment on SK-MEL-28 melanoma and in the experiment on SN12C renal was greater than 100 µM each time. Moreover, the TGI in the experiment on SNB-19 CNS, in the experiment on SR leukemia, in the experiment with T-47D breast and in the experiment on TK-10 renal was greater than 100 µM throughout.

Values taken from PubChem BioAssay (NCI).
